The record followed here is patent US5292732A, “Pyrrolopyrazine derivatives” (Hoffmann-La Roche Inc., priority 1991, dated 1994).

The structures appear in SMILES notation.

As a reminder, the IC50 is the point on the concentration scale where inhibition reaches its midpoint. Low values mean higher potency, high ones lower potency.

Assay [1] concerns MAO in the brain (substrate PEA). Put plainly: MAO inhibition ex vivo in brain of rats, substrate PEA. Also on record: species or system male albino rats (Fu-SPF). Particulars: rat, 100 μmol/kg orally, 2 hrs., given in percentage of the control values. The protocol:
(§1) The MAO inhibiting activity of the compounds in accordance with the invention can be determined in vitro or ex vivo using standard methods. The preparations to be tested were investigated in the tests described hereinafter, which were based on the methods of R. J. Wurtmann and J. A. Axelrod [Biochem. Pharmac. 12, 1439-41 (1963).
(§2) The compounds to be tested are investigated for the inhibition of MAO in the brain and liver of male albino rats (Fu-SPF, 100-140 g. The test compounds are administered orally as a solution or suspension in water in a dosage of 100 μmol per kilogram body weight. After 2 hrs. the animals are narcotized and decapitated. The brain (without cerebellum) and a portion of the liver are dissected out and submitted analogously to the above-described procedure for the determination of the MAO inhibiting activity, whereby the amount of enzyme used is 20 μl of a 1:20 homogenate in the case of brain and 20 μl of a 1:80 homogenate in the case of liver. The activity of the compounds is determined from a comparison of the β-values with the values for control animals treated with vehicle and is given in percentage of the control values.

In assay [2] the test system is MAO in the liver (substrate 5-HT). Briefly: MAO inhibition ex vivo in liver of rats, substrate 5-HT. Also noted: species or system male albino rats (Fu-SPF). As to conditions: rat, 100 μmol/kg orally, 2 hrs., given in percentage of the control values. The procedure: as §1, §2
The next assay deals with T1, MAO (substrate 5-HT) (Rattus norvegicus, UniProt P21396).
T1 construct: 20 μl of rat brain homogenate; from tissue; host or cells: rat brain homogenate
T1 sequence (P21396 1-526): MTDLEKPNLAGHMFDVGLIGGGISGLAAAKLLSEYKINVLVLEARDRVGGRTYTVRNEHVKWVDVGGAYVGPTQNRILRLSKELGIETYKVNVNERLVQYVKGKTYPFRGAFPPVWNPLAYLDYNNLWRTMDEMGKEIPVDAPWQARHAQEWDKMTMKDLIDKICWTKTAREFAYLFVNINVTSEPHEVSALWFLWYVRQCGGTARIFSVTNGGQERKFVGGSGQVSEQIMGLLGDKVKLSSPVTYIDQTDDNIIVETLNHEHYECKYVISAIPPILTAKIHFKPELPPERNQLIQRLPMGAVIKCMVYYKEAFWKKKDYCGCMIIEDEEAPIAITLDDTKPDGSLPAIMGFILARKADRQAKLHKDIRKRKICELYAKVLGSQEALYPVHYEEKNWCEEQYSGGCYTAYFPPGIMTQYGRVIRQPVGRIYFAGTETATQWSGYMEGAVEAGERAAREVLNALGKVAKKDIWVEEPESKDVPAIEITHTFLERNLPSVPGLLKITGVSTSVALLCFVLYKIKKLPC
Put plainly: MAO inhibition in vitro, rat brain homogenate, substrate 14C-labelled serotonin (5-HT). The format is biochemical. Particulars: substrate 5-HT 2×10^-4 M, 37° C. The procedure: as §1
(§3) Isolated rat brains are homogenized in 0.1 molar potassium phosphate buffer (pH 7.4) in the ratio 1:4 (weight/volume), the homogenate is diluted with the same buffer in the ratio 1:5 (volume/volume) and stored at -20° C. A mixture of the following composition was used for the incubation:
(§4) 100 μl of 1M phosphate buffer (pH 6.7);
(§5) 100 μl of solution of the substance to be tested in water or in 10% aqueous dimethyl sulphoxide;
(§6) 20 μl of rat brain homogenate; and as the substrate
(§7) 80 μl of ^14 C-labelled serotonin (5-HT) or ^14 C-labelled phenylethylamine (PEA), the radioactive concentration of which amounts to 100,000 decay per minute and which is used in a final concentration of 2×10^-4 M and, respectively, 2×10^-5 M.
(§8) A pre-incubation at 37° C. is effected for 30 minutes prior to the addition of the substrate. The incubation (in the presence of the substrate) is likewise effected at 37° C. and lasts for 10 minutes. The reaction is stopped by the addition of 200 μl of 2N hydrochloric acid.
(§9) In order to extract the desaminated product, the mixture is shaken for 10 minutes with 5 ml of diethyl ether or with 5 ml of n-heptane depending on whether 5-HT or PEA is used as the substrate, whereupon the mixture is centrifuged, the aqueous phase is frozen in a dry-ice bath, the organic phase is transferred into a counting glass and the radioactive concentration is determined in a β-counter.
(§10) The activity of the MAO in comparison to the control homogenates (without substance to be tested) is obtained on the basis of the β-values and the IC50 is defined as that concentration of a substance to be tested which reduces the activity of the MAO upon the substrate 5-HT or PEA by 50%.

For assay [3], the system named is MAO in the liver (substrate PEA). Briefly: MAO inhibition ex vivo in liver of rats, substrate PEA. Also noted: species or system male albino rats (Fu-SPF). As to conditions: rat, 100 μmol/kg orally, 2 hrs., given in percentage of the control values. The procedure:
as §1, §2

The target of a further assay is T2, MAO (substrate PEA) (Rattus norvegicus, UniProt P19643).
T2 construct: 20 μl of rat brain homogenate; from tissue; host or cells: rat brain homogenate
T2 sequence (P19643 1-520): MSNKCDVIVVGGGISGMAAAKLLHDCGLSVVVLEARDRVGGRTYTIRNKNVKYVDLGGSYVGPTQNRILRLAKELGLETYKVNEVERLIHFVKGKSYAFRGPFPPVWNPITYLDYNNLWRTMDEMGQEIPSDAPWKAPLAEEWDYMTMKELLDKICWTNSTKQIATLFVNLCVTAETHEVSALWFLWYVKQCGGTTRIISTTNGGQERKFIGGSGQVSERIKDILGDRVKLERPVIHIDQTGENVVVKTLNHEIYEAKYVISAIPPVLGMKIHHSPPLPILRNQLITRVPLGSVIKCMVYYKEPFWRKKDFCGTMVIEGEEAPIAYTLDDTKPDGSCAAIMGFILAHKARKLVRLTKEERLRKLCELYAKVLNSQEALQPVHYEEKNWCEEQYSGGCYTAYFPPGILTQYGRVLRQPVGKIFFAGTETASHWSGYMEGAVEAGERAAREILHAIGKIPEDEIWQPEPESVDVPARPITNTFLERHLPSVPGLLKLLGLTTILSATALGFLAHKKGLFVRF
Briefly: MAO inhibition in vitro, rat brain homogenate, substrate 14C-labelled phenylethylamine (PEA). The format is biochemical. As to conditions: substrate PEA 2×10^-5 M, 37° C. The protocol:
as §1, §3, §4, §5, §6, §7, §8, §9, §10

The subject of assay [4] is MAO in the brain (substrate 5-HT). Briefly: MAO inhibition ex vivo in brain of rats, substrate 5-HT. Also noted: species or system male albino rats (Fu-SPF). Particulars: rat, 100 μmol/kg orally, 2 hrs., given in percentage of the control values. The protocol: as §1, §2

Take `CC1=NCCn2c1ccc2-c1ccc(O[C@@H]2C[C@H]3CC[C@@H]2C3)cc1` (relative stereo) [3,4-Dihydro-1-methyl-6-[p-(2-exonorbornyloxy)phenyl]pyrrolo[1,2-a]pyrazine]: the “Remaining brain MAO activity (PEA), % of control” value in assay [1] came out at 11%. In addition, the “MAO inhibition, Liver, 5HT” value in assay [2] worked out at 51%. Also, the IC50 against MAO (substrate 5-HT) worked out at 0.02 µM; at MAO (substrate PEA), 0.003 µM. Besides, the “Remaining liver MAO activity (PEA), % of control” value in assay [3] came out at 10%. In assay [4], the “Remaining brain MAO activity, 5-HT (% of control)” value amounted to 45%.

In the case of `CC1=NCCn2c1ccc2-c1ccc(OC2CCCC2)cc1` [6-[p-(Cyclopentyloxy)phenyl]-3,4-dihydro-1-methylpyrrolo[1,2-a]pyrazine], in assay [1], the “Remaining brain MAO activity (PEA), % of control” value is 33%. In assay [2], the “MAO inhibition, Liver, 5HT” value was determined as 38%. The IC50 at MAO (substrate 5-HT) was 0.01 µM; at MAO (substrate PEA), less than 0.001 µM. Further, the “Remaining liver MAO activity (PEA), % of control” value in assay [3] is on record as 56%. Further, in assay [4], the “Remaining brain MAO activity, 5-HT (% of control)” value is reported as 67%.

In the case of `COc1ccc2c(c1)CCc1cc3n(c1-2)CCN=C3C` [5,6,10,11-Tetrahydro-3-methoxy-8-methyl-benzo[g]pyrazino[1,2-a]indole], the “Remaining brain MAO activity (PEA), % of control” value in assay [1] is listed as 86%. The “MAO inhibition, Liver, 5HT” value in assay [2] worked out at 5%. Besides, the IC50 was 0.0008 µM at MAO (substrate 5-HT) and more than 1 µM against MAO (substrate PEA). In assay [3], the “Remaining liver MAO activity (PEA), % of control” value amounted to 87%. For the same compound, in assay [4], the “Remaining brain MAO activity, 5-HT (% of control)” value stood at 28%.

`CC1NCCn2c1cc1c2-c2ccccc2CC1` (stereo not drawn) [5,6,8,9,10,11-Hexahydro-8-methylbenzo[g]pyrazino[1,2-a]indole]: in assay [1], the “Remaining brain MAO activity (PEA), % of control” value is 95%. Further, in assay [2], the “MAO inhibition, Liver, 5HT” value was determined as 55%. In addition, the IC50 against MAO (substrate 5-HT) was 0.09 µM; on MAO (substrate PEA), more than 1 µM. The “Remaining liver MAO activity (PEA), % of control” value in assay [3] was 78%. Further, the “Remaining brain MAO activity, 5-HT (% of control)” value in assay [4] was found to be 69%.

On to `CC1=NCCn2c1cc1c2-c2ccc(Cl)cc2CC1` [3-Chloro-5,6,10,11-tetrahydro-8-methylbenzo[g]pyrazino[1,2-a]indole], for which the “Remaining brain MAO activity (PEA), % of control” value in assay [1] is on record as 93%. The “MAO inhibition, Liver, 5HT” value in assay [2] is on record as 20%. Moreover, the IC50 is 0.01 µM on MAO (substrate 5-HT) and more than 1 µM on MAO (substrate PEA). Also, in assay [3], the “Remaining liver MAO activity (PEA), % of control” value is listed as 96%. For the same compound, the “Remaining brain MAO activity, 5-HT (% of control)” value in assay [4] turned out to be 42%.
